Data: ChEMBL document CHEMBL4680149, “Biological evaluation and chemoproteomics reveal potential antibacterial targets of a cajaninstilbene-acid analogue” (Eur J Med Chem, 2020)
In brackets after ≈: the same amount, converted by molar mass. Activity calls are given as the source filed them. No cut-off for these calls is given here.

What was measured:
[1] = tested on: Staphylococcus aureus; experiment: Inhibition of PG biosynthesis in Staphylococcus aureus assessed as fold change in PlsC gene expression at 4 ug/ml incubated for 1 hr by qRT-PCR analysis relative to control; assay type: functional; details: dose 4.0 µg/ml
[2] = tested on: Staphylococcus aureus; experiment: Bactericidal activity against in Staphylococcus aureus ATCC 25923 assessed as induction of bacterial death by measuring reduction in fluorescence intensity at 4 times MIC measured upto 90 mins by DiOC5 dye based flow cytometric analysis; assay type: functional, organism-based; details: time min <=90
[3] = tested on: Staphylococcus aureus; experiment: Bactericidal activity against Staphylococcus aureus ATCC 25923 assessed as reduction in bacterial colony formation at 2X MIC incubated for 2 hrs by colony counting method; assay type: functional, organism-based
[4] = tested on: Staphylococcus aureus; experiment: Resistance index, ratio of MIC for antibacterial activity against Staphylococcus aureus ATCC 25923 measured after 60 days of serial passage to MIC for antibacterial activity against Staphylococcus aureus ATCC25923 measured after 16 hrs; assay type: functional
[5] = tested on: Staphylococcus aureus; experiment: Antibacterial activity against Staphylococcus aureus ATCC 25923 assessed as reduction in bacterial growth incubated for 16 hrs by broth microdilution method; assay type: functional
[6] = tested on: Staphylococcus aureus; experiment: Binding affinity to His-tagged recombinant Staphylococcus aureus PgsA expressed in Escherichia coli Rosetta DE3 at 5 uM incubated for 1 hr followed by UV irradiation for 20 mins by in-gel fluorescence scanning analysis; details: time 80.0 min
[7] = tested on: Cell membrane; experiment: Induction of cell membrane disruption in methicillin resistant Staphylococcus aureus ATCC 43300 assessed as loose cell wall at 4 ug/ml incubated for 1 hr by transmission electron microscopic analysis; details: dose 4.0 µg/ml
[8] = tested on: Staphylococcus aureus; experiment: Antibacterial activity against methicillin resistant Staphylococcus aureus ATCC 43300 persisters assessed as eradication of colony formation at 24 to 40 ug/ml incubated for 6 hrs by colony counting method; assay type: functional, organism-based; details: dose 24-40 µg/ml
[9] = tested on: Lipid bilayer; experiment: Induction of pore formation in DOPC/DOPG large unilamellar vesicles assessed as calcein leakage at 0.5 to 2 times MIC measured for 30 mins by fluorescence based assay
[10] = tested on: Staphylococcus aureus; experiment: Inhibition of PG biosynthesis in Staphylococcus aureus assessed as fold change in CdsA gene expression at 4 ug/ml incubated for 1 hr by qRT-PCR analysis relative to control; assay type: functional; details: dose 4.0 µg/ml
[11] = tested on: Cell membrane; experiment: Induction of cell membrane permeabilization in methicillin resistant Staphylococcus aureus ATCC 43300 assessed as increase in nucleic acid leakage by measuring increase in absorbance at 0.5 to 2X MIC measured every 30 mins for 5 hrs by spectrophotometry; assay type: subcellular
[12] = tested on: Staphylococcus aureus; experiment: Inhibition of PG biosynthesis in Staphylococcus aureus assessed as fold change in MprF gene expression at 4 ug/ml incubated for 1 hr by qRT-PCR analysis relative to control; assay type: functional; details: dose 4.0 µg/ml
[13] = tested on: Staphylococcus aureus; experiment: Antibacterial activity against Staphylococcus aureus ATCC 25923 assessed as reduction in bacterial growth measured after 60 days of serial passage; assay type: functional; details: ATCC 25923, 1440 h, time 60 day
[14] = tested on: Staphylococcus aureus; experiment: Inhibition of PG biosynthesis in Staphylococcus aureus assessed as fold change in Cls gene expression at 4 ug/ml incubated for 1 hr by qRT-PCR analysis relative to control; assay type: functional; details: dose 4.0 µg/ml
[15] = tested on: Staphylococcus aureus; experiment: Inhibition of PG biosynthesis in Staphylococcus aureus assessed as fold change in PlsX gene expression at 4 ug/ml incubated for 1 hr by qRT-PCR analysis relative to control; assay type: functional; details: dose 4.0 µg/ml
[16] = tested on: Cell membrane; experiment: Induction of cell membrane disruption in Staphylococcus aureus ATCC 25923 at 4 ug/ml incubated for 1 hr by transmission electron microscopic analysis; assay type: subcellular; details: dose 4.0 µg/ml
[17] = tested on: Staphylococcus aureus; experiment: Bacteriostatic activity against Staphylococcus aureus ATCC 25923 assessed as reduction in bacterial growth at 4 ug/ml incubated for 16 hrs by Kirby-Bauer test method; assay type: functional, organism-based; details: dose 4.0 µg/ml
[18] = tested on: Cell membrane; experiment: Induction of cell membrane permeabilization in Staphylococcus aureus ATCC 25923 assessed as increase in nucleic acid leakage by measuring increase in absorbance at 0.5 to 2X MIC measured every 30 mins for 5 hrs by spectrophotometry; assay type: subcellular
[19] = tested on: Cell membrane; experiment: Induction of cell membrane disruption in methicillin resistant Staphylococcus aureus ATCC 43300 at 4 ug/ml incubated for 1 hr by transmission electron microscopic analysis; assay type: subcellular; details: dose 4.0 µg/ml
[20] = tested on: Staphylococcus aureus; experiment: Bacteriostatic activity against Staphylococcus aureus ATCC 25923 assessed as reduction in bacterial growth at 4 ug/ml incubated for 2 hrs by colony counting method; assay type: functional, organism-based; details: dose 4.0 µg/ml
[21] = tested on: Staphylococcus aureus; experiment: Inhibition of PG biosynthesis in Staphylococcus aureus assessed as fold change in PlsY gene expression at 4 ug/ml incubated for 1 hr by qRT-PCR analysis relative to control; assay type: functional; details: dose 4.0 µg/ml
[22] = tested on: Cell membrane; experiment: Induction of cell membrane disruption in Staphylococcus aureus ATCC 25923 assessed as loose cell wall at 4 ug/ml incubated for 1 hr by transmission electron microscopic analysis; details: dose 4.0 µg/ml
[23] = tested on: Staphylococcus aureus; experiment: Antibacterial activity against methicillin resistant Staphylococcus aureus ATCC 43300 persisters assessed as reduction in number of living bacteria at 24 to 40 ug/ml measured over 24 hrs by colony counting method; assay type: functional, organism-based; details: dose 24-40 µg/ml
[24] = tested on: RAW264.7; experiment: Cytotoxicity against mouse RAW264.7 cells assessed as reduction in cell viability incubated for 48 hrs by MTT assay; assay type: cell-based; details: RAW264.7, 48 h
[25] = tested on: Cell membrane; experiment: Induction of cell membrane depolarization in Staphylococcus aureus ATCC 25923 assessed as reduction in fluorescence intensity at 0.5 to 1 times MIC measured upto 90 mins by DiOC5 dye based flow cytometric analysis; assay type: subcellular; details: time min <=90
[26] = tested on: Staphylococcus aureus; experiment: Inhibition of PG biosynthesis in Staphylococcus aureus assessed as fold change in YpfP gene expression at 4 ug/ml incubated for 1 hr by qRT-PCR analysis relative to control; assay type: functional; details: dose 4.0 µg/ml
[27] = tested on: Staphylococcus aureus; experiment: Inhibition of PG biosynthesis in Staphylococcus aureus assessed as fold change in LtaS gene expression at 4 ug/ml incubated for 1 hr by qRT-PCR analysis relative to control; assay type: functional; details: dose 4.0 µg/ml
[28] = tested on: Staphylococcus aureus; experiment: Inhibition of PG biosynthesis in Staphylococcus aureus assessed as fold change in DgkB gene expression at 4 ug/ml incubated for 1 hr by qRT-PCR analysis relative to control; assay type: functional; details: dose 4.0 µg/ml

## COc1cc(/C=C/c2ccccc2F)c(C(=O)O)c(O)c1CC=C(C)C
[1]
  fold change (FC): 1.99
[2]
  Activity: Active
[3]
  Activity: Active
[4]
  Ratio: 3
[5]
  MIC: 4 µg/mL (≈ 11.2 µM)
[6]
  Activity: Active
[7]
  Activity: Active
[8]
  Activity: Active
[9]
  Activity: inactive
[10]
  fold change (FC): 1.18
[11]
  Activity: Active
[12]
  fold change (FC): 0.759
[13]
  MIC: 12 µg/mL (≈ 33.7 µM)
[14]
  fold change (FC): 0.558
[15]
  fold change (FC): 0.577
[16]
  Activity: Active
[17]
  Activity: Active
[18]
  Activity: Active
[19]
  Activity: Active
[20]
  Activity: Active
[21]
  fold change (FC): 1.58
[22]
  Activity: Active
[23]
  Activity: Active
[24]
  IC50: 62.6 µM
[25]
  Activity: Active
[26]
  fold change (FC): 0.446
[27]
  fold change (FC): 0.663
[28]
  fold change (FC): 1.25
